Test results from article PMC3532212 (PLoS ONE, 2012).
Where “and” joins values, the source holds several entries; their conditions need not be identical. Equal entries are not always repeated.

Legend:
Type in all cases: in vivo
[1] = system: conscious, telemetry-instrumented rats; assay: Telemetry-instrumented conscious rats, repeat-dosing hemodynamics; conditions: conscious rat; for 24-hr mean change in heart rate: vehicle −2±1; for mean arterial pressure increase relative to baseline, 24-hr mean over the treatment period: vehicle 3.7±0.5
Protocol: Mean arterial pressure was assessed in conscious, freely moving male Sprague Dawley rats (n = 6–8/group; Charles River) instrumented with telemetry transmitters (DSI-Ponemah) and housed in metabolism cages as previously described, [26]. Tested compounds were solubilized in a 0.5% Methylcellulose/0.015% Tween 80 vehicle that was also dosed alone (p.o./QD, 5 mL/kg) as a control in the study. FTY720 was administered p.o. at 0.3, 1.0, 3.0, 10.0 mg/kg p.o. as a single dose or p.o./QD at 0.5, 1.5, and 5.0 mg/kg in a chronic study. […] Mean arterial pressure and heart rate are shown as 1-hr and/or 24-hr mean values±SEM as described in the results. Blood samples in satellite rats were withdrawn at various timepoints as described in the results for analysis of plasma concentrations of the parent compound and, in the case of FTY720, also the phosphorylated metabolite, (S)-FTY720-P. Statistical analysis for the single-dose acute studies was based on one-way ANOVA to compare the treatment groups vs. vehicle for each time period after dosing (0–24 hrs, 24–48 hrs, and 48–72 hrs); statistical significance (p<0.05) was detected by Dunnett’s post-hoc test to compare treatment with vehicle controls. The statistical analysis in the chronic studies were based on one-way ANOVA with repeated measures to compare the treatment arms; statistical significance (p<0.05) was detected by Dunnett’s post-hoc test to compare treatment with vehicle controls.

anesthetized rats = assay: Anesthetized rat cardiovascular study (mean arterial pressure, heart rate); conditions: for heart rate, change below baseline / mean arterial pressure, change below baseline: anesthetized rat, FTY720 i.v.
Protocol: The cardiovascular effects of FTY720 and BAF312 were tested in anesthetized rats (180–200 g). In brief, male Sprague Dawley rats (Charles River) were anesthetized with Inactin (110 mg/kg i.p.) and a tracheotomy performed. The femoral artery and veins were catheterized for measurement of mean arterial pressure and heart rate, collection of blood samples at 20-min intervals (0.2 mL/sample), and for compound infusion/hydration as previously described, [24]; blood samples were also withdrawn in vehicle-treated control rats. FTY720, infused as a hydrochloride salt (0.1, 0.3, 1.0 mg/kg/20-min free base equivalent solubilized in a 100% PEG-400 vehicle), or BAF312 (0.5, 1.5, 5.0 mg/kg/20-min solubilized in a 100% PEG-400 vehicle) were administered via three escalating 20-min infusions (0.011 mL/min) followed by a 1-hr post-treatment period. A blood sample was withdrawn at 20, 40, 60, and 120-minutes for analysis of plasma concentrations of the parent compound, and in the case of FTY720, also the phosphorylated metabolite, (S)-FTY720-P. Statistical significance (p<0.05) was based on a t-test comparing treatment change from baseline (baseline was defined as the period from −30 to 0 minutes) vs. vehicle controls change from baseline at each timepoint without adjustment for multiple comparisons. In a separate group of anesthetized rats in which left ventricular (LV) contractility was also recorded with a Millar pressure transducer introduced into the left ventricle, BAF312 was infused in the same dosing regimen as the studies described above (0.5, 1.5, 5.0 mg/kg/20-min solubilized in a 100% PEG-400 vehicle) and effects on LV dP/dtmax were recorded.

[2] = Plasma concentrations after a single oral dose in rats; conditions: rat; for concentration at 4 hr / concentration at 8 h / concentration at 24 h / concentration at 48 h / concentration at 72 h: male, Sprague Dawley, plasma, mean±SEM; for concentration at 4 hr: 4 hr post-dose; for concentration at 8 h: 8 hr post-dose; for concentration at 24 h: 24 hr post-dose; for concentration at 48 h: 48 hr post-dose; for concentration at 72 h: 72 hr post-dose
Protocol: Mean arterial pressure was assessed in conscious, freely moving male Sprague Dawley rats (n = 6–8/group; Charles River) instrumented with telemetry transmitters (DSI-Ponemah) and housed in metabolism cages as previously described, [26]. Tested compounds were solubilized in a 0.5% Methylcellulose/0.015% Tween 80 vehicle that was also dosed alone (p.o./QD, 5 mL/kg) as a control in the study. FTY720 was administered p.o. at 0.3, 1.0, 3.0, 10.0 mg/kg p.o. as a single dose or p.o./QD at 0.5, 1.5, and 5.0 mg/kg in a chronic study. BAF312 was administered p.o/QD at 0.3, 3.0, and 30 mg/kg as a single dose and in a chronic study. Mean arterial pressure and heart rate are shown as 1-hr and/or 24-hr mean values±SEM as described in the results. Blood samples in satellite rats were withdrawn at various timepoints as described in the results for analysis of plasma concentrations of the parent compound and, in the case of FTY720, also the phosphorylated metabolite, (S)-FTY720-P. Statistical analysis for the single-dose acute studies was based on one-way ANOVA to compare the treatment groups vs. vehicle for each time period after dosing (0–24 hrs, 24–48 hrs, and 48–72 hrs); statistical significance (p<0.05) was detected by Dunnett’s post-hoc test to compare treatment with vehicle controls. The statistical analysis in the chronic studies were based on one-way ANOVA with repeated measures to compare the treatment arms; statistical significance (p<0.05) was detected by Dunnett’s post-hoc test to compare treatment with vehicle controls.

[3] = end of 0.1 mg/kg/20 min infusion
[4] = end of 0.3 mg/kg/20 min infusion
[5] = end of 1.0 mg/kg/20 min infusion
[6] = FTY720 0.3 mg/kg single oral dose
[7] = FTY720 1.0 mg/kg single oral dose
[8] = FTY720 3.0 mg/kg single oral dose
[9] = FTY720 10.0 mg/kg single oral dose

Structure (SMILES): CCCCCCCCc1ccc(CCC(N)(CO)CO)cc1 [FTY720]
- 24-hr mean change in heart rate ([1]; FTY720 0.5 mg/kg p.o./QD repeat dosing): 11±2 beats/min
- mean arterial pressure increase relative to baseline, 24-hr mean over the treatment period ([1]; FTY720 0.5 mg/kg/d p.o./QD, 0.5 mg/kg/day): 8.4 mmHg and 8.4±0.4 mmHg
- 24-hr mean change in heart rate ([1]; FTY720 1.5 mg/kg p.o./QD repeat dosing): 1±1 beats/min
- mean arterial pressure increase relative to baseline, 24-hr mean over the treatment period ([1]; FTY720 1.5 mg/kg/d p.o./QD, 1.5 mg/kg/day): 12.8 mmHg and 12.8±0.4 mmHg
- 24-hr mean change in heart rate ([1]; FTY720 5.0 mg/kg p.o./QD repeat dosing): 1±3 beats/min
- mean arterial pressure increase relative to baseline, 24-hr mean over the treatment period ([1]; FTY720 5.0 mg/kg/d p.o./QD, 5 mg/kg/day): 16.2 mmHg and 16.2±0.8 mmHg
- bradycardia during repeat dosing ([1]; FTY720 0.5, 1.5, 5.0 mg/kg/d p.o.): no acute or sustained bradycardia
- heart rate, change below baseline (anesthetized rats; [3]): −71±26 beats/min
- mean arterial pressure, change below baseline (anesthetized rats; [3]): −9±3 mmHg
- heart rate, change below baseline (anesthetized rats; [4]): −139±37 beats/min
- mean arterial pressure, change below baseline (anesthetized rats; [4]): −22±4 mmHg
- heart rate, change below baseline (anesthetized rats; [5]): −173±26 beats/min
- mean arterial pressure, change below baseline (anesthetized rats; [5]): −24±4 mmHg
- effect on heart rate of acute i.v. infusion (anesthetized rats; anesthetized rats, FTY720 0.1, 0.3, 1.0 mg/kg/20 min or BAF312 0.5, 1.5, 5.0 mg/kg/20 min): acute bradycardia
- concentration at 4 hr [2, 6]: 10 ± 5 nM
- concentration at 8 h [2, 6]: 14 ± 5 nM
- concentration at 24 h [2, 6]: 15 ± 3 nM
- concentration at 48 h [2, 6]: 13 ± 1 nM
- concentration at 72 h [2, 6]: 7 ± 2 nM
- concentration at 4 hr [2, 7]: 25 ± 3 nM
- concentration at 8 h [2, 7]: 36 ± 5 nM
- concentration at 24 h [2, 7]: 22 ± 2 nM
- concentration at 48 h [2, 7]: 12 ± 1 nM
- concentration at 72 h [2, 7]: 10 ± 1 nM
- concentration at 4 hr [2, 8]: 62 ± 4 nM
- concentration at 8 h [2, 8]: 79 ± 17 nM
- concentration at 24 h [2, 8]: 91 ± 19 nM
- concentration at 48 h [2, 8]: 53 ± 15 nM
- concentration at 72 h [2, 8]: 34 ± 4 nM
- concentration at 4 hr [2, 9]: 146 ± 18 nM
- concentration at 8 h [2, 9]: 274 ± 46 nM
- concentration at 24 h [2, 9]: 301 ± 31 nM
- concentration at 48 h [2, 9]: 143 ± 16 nM
- concentration at 72 h [2, 9]: 101 ± 21 nM
- Plasma concentration at Tmax [2, 6]: 15 ± 3 nM
- Plasma concentration at Tmax [2, 7]: 36 ± 5 nM
- Plasma concentration at Tmax [2, 8]: 91 ± 19 nM
- Plasma concentration at Tmax ([2]; FTY720 10 mg/kg single oral dose): 301 ± 31 nM
- time post-dose through which plasma values were detectable ([2]; FTY720 single oral dose): at least 72 hrs
